The values that follow come from ChEMBL document CHEMBL1132065, “Synthesis and biological activity of oxo-7H-benzo[e]perimidine-4-carboxylic acid derivatives as potent, nonpeptide corticotropin releasing factor (CRF) receptor antagonists” (Bioorg Med Chem Lett, 1999).

Usually Ki stands for a dissociation constant, usually derived from enzyme kinetics or from competition with a known ligand.

Assay [1] addresses T1, Corticotropin-releasing factor receptor 1 (Rattus norvegicus, UniProt P35353).
T1 sequence (P35353 whole entry): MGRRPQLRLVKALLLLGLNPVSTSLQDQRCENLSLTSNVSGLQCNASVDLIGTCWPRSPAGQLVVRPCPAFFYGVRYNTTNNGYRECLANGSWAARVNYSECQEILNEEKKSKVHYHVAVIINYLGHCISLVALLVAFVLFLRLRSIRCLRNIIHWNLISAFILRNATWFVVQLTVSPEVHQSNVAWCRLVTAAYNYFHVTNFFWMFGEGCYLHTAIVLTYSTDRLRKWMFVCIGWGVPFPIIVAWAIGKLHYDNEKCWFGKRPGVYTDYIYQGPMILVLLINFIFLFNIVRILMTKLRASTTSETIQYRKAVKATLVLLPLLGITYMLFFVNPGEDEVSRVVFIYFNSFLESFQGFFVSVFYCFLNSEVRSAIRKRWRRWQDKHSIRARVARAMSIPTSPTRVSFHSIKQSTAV
The assay can be described thus: Antagonistic activity against [125I]-Tyr-ovine CRF binding to Corticotropin releasing factor receptor 1.

For assay [2], the target named is T2, Corticotropin-releasing factor receptor 2 (Mus musculus, UniProt Q60748). The assay can be described thus: Antagonistic activity against [125I]-Tyr-ovine CRF binding to Corticotropin releasing factor receptor 2 beta.
Assay [3] is described as follows: Binding affinity to Glp1 receptor using [125I]Glp-1 as radioligand.
A short description of assay [4]: Binding affinity against Galanin receptor. Also on record: species or system Homo sapiens.
Assay [5] deals with 5-hydroxytryptamine receptor 7 (Homo sapiens, UniProt P34969). Kind of assay: Binding affinity against 5-hydroxytryptamine 7 receptor.
In assay [6] the target is T3, Neuropeptide Y receptor type 1 (Homo sapiens, UniProt P25929).
T3 sequence (P25929 whole entry): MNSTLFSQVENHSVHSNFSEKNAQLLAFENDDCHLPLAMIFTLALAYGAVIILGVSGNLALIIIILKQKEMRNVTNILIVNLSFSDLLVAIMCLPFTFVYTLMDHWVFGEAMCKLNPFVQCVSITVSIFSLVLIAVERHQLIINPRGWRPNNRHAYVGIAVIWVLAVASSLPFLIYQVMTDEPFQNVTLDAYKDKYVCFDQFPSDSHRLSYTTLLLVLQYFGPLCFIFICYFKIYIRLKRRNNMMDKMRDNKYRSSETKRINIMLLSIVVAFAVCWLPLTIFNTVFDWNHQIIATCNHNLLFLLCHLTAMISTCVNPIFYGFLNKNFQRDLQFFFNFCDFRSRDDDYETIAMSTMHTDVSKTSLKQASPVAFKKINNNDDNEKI
The assay can be described thus: Binding affinity against Neuropeptide Y receptor type 1 using [125I]PYY.

Assay [7] has as its target 5-hydroxytryptamine receptor 6 (Homo sapiens, UniProt P50406). The assay can be described thus: Binding affinity against 5-hydroxytryptamine 6 receptor.
Assay [8] deals with D(2) dopamine receptor (Homo sapiens, UniProt P14416). Kind of assay: Binding affinity against dopamine D2 receptor.
Assay [9] in a line: Binding affinity against Glucagon receptor using [125I]glucagon.
Assay [10] deals with T2, Corticotropin-releasing factor receptor 2. Kind of assay: Antagonistic activity against [125I]-Tyr-ovine CRF binding to Corticotropin releasing factor receptor 2 beta (30% inhibition at 100 uM).

T2 sequence (Q60748 whole entry): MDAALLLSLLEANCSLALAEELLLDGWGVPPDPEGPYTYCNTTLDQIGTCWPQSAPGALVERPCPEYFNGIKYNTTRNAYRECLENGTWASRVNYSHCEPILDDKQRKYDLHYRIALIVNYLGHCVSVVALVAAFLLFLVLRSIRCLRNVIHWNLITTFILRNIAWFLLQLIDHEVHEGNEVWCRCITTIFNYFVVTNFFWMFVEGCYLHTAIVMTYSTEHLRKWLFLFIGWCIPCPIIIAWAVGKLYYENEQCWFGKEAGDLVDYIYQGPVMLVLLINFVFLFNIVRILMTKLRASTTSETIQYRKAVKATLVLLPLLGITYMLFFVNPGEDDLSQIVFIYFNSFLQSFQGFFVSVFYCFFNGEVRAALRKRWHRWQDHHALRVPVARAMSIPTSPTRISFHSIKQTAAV
Chain of D(2) dopamine receptor (P14416 whole entry): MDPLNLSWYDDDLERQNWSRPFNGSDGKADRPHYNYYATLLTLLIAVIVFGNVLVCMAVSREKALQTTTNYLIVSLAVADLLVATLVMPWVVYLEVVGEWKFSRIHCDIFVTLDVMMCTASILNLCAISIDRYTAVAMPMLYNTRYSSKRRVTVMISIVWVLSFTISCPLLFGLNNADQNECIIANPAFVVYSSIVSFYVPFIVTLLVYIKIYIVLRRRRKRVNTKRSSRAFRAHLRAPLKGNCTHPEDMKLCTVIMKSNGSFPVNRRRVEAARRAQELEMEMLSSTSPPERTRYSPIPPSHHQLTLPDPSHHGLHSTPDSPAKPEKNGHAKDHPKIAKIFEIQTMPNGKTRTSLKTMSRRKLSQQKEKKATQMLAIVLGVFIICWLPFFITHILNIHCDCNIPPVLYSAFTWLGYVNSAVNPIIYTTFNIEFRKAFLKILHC
Chain of 5-hydroxytryptamine receptor 7 (P34969 whole entry): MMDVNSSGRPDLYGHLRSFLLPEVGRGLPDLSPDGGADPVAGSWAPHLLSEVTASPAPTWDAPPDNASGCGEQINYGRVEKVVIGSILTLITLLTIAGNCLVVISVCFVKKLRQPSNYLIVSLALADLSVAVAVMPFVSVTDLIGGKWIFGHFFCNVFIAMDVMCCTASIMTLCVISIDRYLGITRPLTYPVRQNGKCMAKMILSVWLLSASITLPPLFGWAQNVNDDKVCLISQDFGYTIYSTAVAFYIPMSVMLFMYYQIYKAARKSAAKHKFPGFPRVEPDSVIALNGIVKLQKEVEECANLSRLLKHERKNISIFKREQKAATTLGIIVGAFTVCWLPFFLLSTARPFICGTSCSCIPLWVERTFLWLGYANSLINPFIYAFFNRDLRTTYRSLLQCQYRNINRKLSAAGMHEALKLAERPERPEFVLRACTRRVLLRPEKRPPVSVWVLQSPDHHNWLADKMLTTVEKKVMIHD
Chain of 5-hydroxytryptamine receptor 6 (P50406 whole entry): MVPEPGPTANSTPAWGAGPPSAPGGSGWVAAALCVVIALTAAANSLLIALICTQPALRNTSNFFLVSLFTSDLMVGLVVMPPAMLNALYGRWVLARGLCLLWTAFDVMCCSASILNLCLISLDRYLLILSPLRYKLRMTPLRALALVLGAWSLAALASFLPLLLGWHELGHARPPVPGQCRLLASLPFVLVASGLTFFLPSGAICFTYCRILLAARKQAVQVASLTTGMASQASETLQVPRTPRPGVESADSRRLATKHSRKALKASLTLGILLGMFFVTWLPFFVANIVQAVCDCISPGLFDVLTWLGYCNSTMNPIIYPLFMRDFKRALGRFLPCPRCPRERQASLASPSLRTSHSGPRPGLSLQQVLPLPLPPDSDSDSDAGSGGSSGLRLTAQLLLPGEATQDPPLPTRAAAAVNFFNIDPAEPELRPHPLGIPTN

Consider `NCCNC(=O)c1c2c(c3c(O)c4ccccc4c4ncnc1c34)=NCCN2`, for which the inhibition constant (Ki) in [1] was 2050 nM; in assay [2] it was 650 nM.

Regarding `N[C@H]1CCCC[C@@H]1NC(=O)c1c2c(c3c4c(ncnc14)-c1ccccc1C3=O)N[C@@H]1CCCC[C@H]1N2`, the inhibitory constant (Ki) in assay [1] is 110 nM; in [3], greater than 10000 nM; in assay [4] it was greater than 10000 nM; in assay [5], 1600 nM; in [6], 4200 nM; in [7], greater than 10000 nM. For the same compound, the inhibition constant (Ki) is 3200 nM in assay [8], 20 nM in assay [2] and greater than 10000 nM in assay [9].

In the case of `NCCNC(=O)c1c2c(c3c(O)c4ccccc4c4ncnc1c34)=N[C@H]1CCCC[C@H]1N2`, the Ki stood at 270 nM in assay [1] and 830 nM in [2].

On to `N[C@H]1CCCC[C@H]1NC(=O)c1ccc2c3c(ncnc13)-c1ccccc1C2=O`, for which the inhibition constant Ki in assay [1] and in assay [2] was greater than 10000 nM throughout.

As for `N[C@@H]1CCCC[C@H]1NC(=O)c1ccc2c3c(ncnc13)-c1ccccc1C2=O`, the inhibition constant Ki in assay [1] and in assay [2] was greater than 10000 nM in each case.

For the compound `NCCNC(=O)c1ccc2c3c(ncnc13)-c1ccccc1C2=O`, the Ki in assay [1] and in assay [2] was greater than 10000 nM each time.

For `CN(C)C(=O)c1ccc2c3c(ncnc13)-c1ccccc1C2=O`, the Ki in assay [2] is greater than 10000 nM.

Turning to `O=C(O)c1ccc2c3c(ncnc13)-c1ccccc1C2=O`, the Ki in assay [10] was greater than 100000 nM.

For `N[C@@H]1CCCC[C@H]1NC(=O)c1c2c(c3c(O)c4ccccc4c4ncnc1c34)=N[C@H]1CCCC[C@@H]1N2`, the inhibition constant Ki in [1] is 180 nM; in assay [2], 86 nM.

For `NCCNC(=O)c1c2c(c3c4c(ncnc14)-c1ccccc1C3=O)N[C@H]1CCCC[C@@H]1N2`, the figures for the Ki in [1] and in [2] were 200 nM and 75 nM, respectively.

With `NCCNC(=O)c1c2c(c3c(O)c4ccccc4c4ncnc1c34)=N[C@@H]1CCCC[C@H]1N2`, the Ki in assay [1] turned out to be 160 nM; in [2] it was 45 nM.
